Results reported in US12172992B2, “Pyrimidines for degrading Bruton's tyrosine kinase” (AbbVie Inc., priority 2022, dated 2024).

Tests used:
BTK in mouse bone marrow = BTK in mouse bone marrow (Mus musculus (Mouse), UniProt P35991); test: Mouse Bone Marrow Assay (MSD ELISA of BTK degradation in bone marrow); assay type: in vivo; conditions: female C57BL/6J mice, single dose of Dose A, bone marrow collected after 24 hours
Experimental: Female C57BL/6J mice (Jackson Laboratories) were used for this study. Compounds or vehicle/control were prepped with EtOH; PEG-400; Phosal 53 MCT (10:30:60, v/v). Four mice were tested per compound or vehicle/control. On Day 1, mice were administered a single dose of Dose A. On Day 2 (after 24 hours), tissue (bone marrow) was collected from one hind leg per mouse.
An MSD (Meso Scale Discovery) ELISA (enzyme-linked immunosorbent assay) based assay was used to determine BTK degradation in mouse bone marrow. The following materials and equipment were used: 10% NP40 solution (nonionic polyoxyethylene surfactant, ThermoFisher, cat no. 28324); protease inhibitor mini tablet (Roche, cat no. 05 892 970 001); PhosphoSTOP™ tablet (Roche, cat no. 04 906 837 001); Pierce™ BCA Protein Assay Kit (Thermofisher, Cat No. 23225); Precellys® 2 mL lysing tube with 2.8 mm beads (VWR, cat no. 10032-756); Bertin Precellys® 24/Cryolys® cooling system; 96-well MSD streptavidin pre-coated plates (MSD, cat no. L15SA-1); MSD Blocker A (MSD, cat no. R93BA-4); capture antibody, biotinylated BTK mAb (BD Biosciences, cat no. 624008; custom order); primary detection antibody, BTK RpAb (rabbit polyclonal antibody, CST, cat no. 8547S, D3H5 clone); secondary detection antibody, anti-Rabbit-Sulfo-Tag (MSD, cat no. R32AB-1); read Buffer, 4× (MSD, cat no. R92TC-1); recombinant BTK protein (Thermofisher, cat no. PR5442A); MSD Tris Wash Buffer (10×) (MSD, cat no. R61TX-1); PBS (phosphate-buffered saline); deionized water (diH2O); Lysis Buffer [0.2% NP40 in PBS+Protease Inhibitor tablet (1 tablet/10 mL)+PhosphoSTOP tablet (1 tablet/10 mL)]; 3% MSD Blocker A [MSD Blocker A+450 mL diH2O+50 mL]; and 10×MSD Tris Wash Buffer.
Lysis buffer [(PBS+0.2% NP40+PI (protease inhibitor)+PhosphoSTOP)] was prepared and put on ice until it was fully cold. Ice cold lysis buffer […] was added to each Precellys® tube containing beads and bone marrow sample. Sample tubes were transferred into Precellys® machine and homogenized using 5000 rpm—2×20 seconds. The sample lysates were centrifuged at 14,000 rpm for 20 minutes at 4° C. after homogenizing.
The protein concentration was determined using Pierce™ BCA Protein Assay Kit following manufacturer's recommended protocol. The protein normalized working solution was prepared, using 30 μg protein per sample lysate for assay.
A 300 ng/ml working stock solution of recombinant BTK protein in lysis buffer was prepared, and the sample was serially diluted at 3-fold dilution (10-point assay, highest concentration was 300 ng/mL and lowest concentration was 0.015 ng/mL)
MSD plate coating: Coating antibody (biotinylated-BTK mAb) stock solution was prepared at 1 μg/mL in PBS buffer. 50 μL/well capture antibody (Biotinylated BTK mAb) solution was added, and the plates were shaken gently at ambient temperature for two hours. The plates were washed 3 times with 1×MSD Tris Wash Buffer in a plate washer (300 μL/well), and the plates were blocked with 3% MSD Blocker A (150 μL/well). The plates were incubated for an additional 1-2 hours at ambient temperature with gentle shaking. The plates were washed 3 times with 1×MSD wash buffer using plate washer. Bone marrow lysates (30 μg) at a final volume of 50 μL/well were added into the plates. The serially diluted standard samples were added to the same plates at a final volume of 50 μL/well. The plates were incubated overnight at 4° C. with gentle shaking.
The plates were washed three times with 1×MSD wash buffer (prepared from 10× concentration buffer) using plate washer. Primary detection antibody at 50 μL/well was added (BTK RpAb; 1:1000 dilution in 1% MSD Blocker A). The plates were incubated for two hours at ambient temperature with gentle shaking. The plates were washed three times with 1×MSD wash buffer using plate washer. Anti-Rabbit-SULFO-TAG secondary antibodies (50 μl/well) were added, 1:500 diluted in 1% MSD Blocker A, and the plates were incubated for one to two hours at ambient temperature. […]

[1] = biological target: BTK protein in human whole blood (Homo sapiens (Human), UniProt Q06187); test: Btk protein in human whole blood MSD ELISA based assay (BTK degradation); assay type: cell-based; conditions: 6 hours, maximum BTK degradation compared to DMSO only treated samples, read-out: hWB BTK dMax (%)
Experimental: Btk protein degradation was tested using an Meso Scale Discovery-ELISA system (MSD-ELISA): (1) Test compounds were added to human whole blood; (2) human whole blood cells treated with test compounds were lysed; (3) lysed cells were treated with capture antibody, an antibody to Btk; (4) lysed cells were treated with […] to Btk; and (5) lysed cells were treated with anti-mouse antibody (tagged).
Specifically, about 80 μl of fresh human whole blood from healthy donors was transferred into each well of a 96-well V-bottom plate (Costar, Cat No. 3894). Using a TECAN™ D300e Digital Dispenser (Tecan)), 1:4 serially diluted compounds [(8 pt assay) in DMSO solution (final 0.2%) starting at 3 μM top concentration], were added in duplicate. Thereafter, plates were placed in a 37° C. incubator and incubated for 6 hours.
At the end of incubation, 80 μl of 2×CST lysis buffer (Cell Signaling Technology, Cat No. 9803), prepared from a 10× stock solution, was added per well to lyse the blood. Plates were then sealed with a plate sealer and the samples were frozen overnight at −80° C.
Total amount of BTK protein remaining in the blood samples after compound treatment was measured using MSD-ELISA. After thawing the frozen plates, blood lysates were mixed thoroughly and transferred to small spot high-bind MSD plates (Meso Scale Discovery, Cat No. L45XB-3) and coated with capturing antibody, rabbit anti-human BTK (D3H5) (Cell Signaling Technology, Cat No. 8547CF). Thereafter, primary detection antibody, mouse anti-human BTK monoclonal antibody, (BD Biosciences, Cat No. 611117) and secondary detection antibody, anti-mouse SULFO-TAG (Meso Scale Discovery, Cat No. R32AC-1) were added. The assay plates were read on an MSD S600 plate reader by the addition of 2×MSD read buffer (Meso Scale Discovery, R92TC-1). All reagent transfers, including blood lysis, was conducted using a Biomed i7 liquid handler. From the dose response curves, DC50 values were calculated by averaging data from duplicate experiments. and Curve fitting was done by non-linear regression using GraphPad Prism. The DC50 values are reported in Table 2 in the hWB BTK DC50 (nM) column The Dmax values represent the maximum amount of BTK degradation observed upon compound treatment compared to DMSO only treated samples. The dMax (%) values are reported in Table 2 in the hWB BTK dMax (%) column.

BTK in mouse bone marrow, sequence (P35991 whole entry): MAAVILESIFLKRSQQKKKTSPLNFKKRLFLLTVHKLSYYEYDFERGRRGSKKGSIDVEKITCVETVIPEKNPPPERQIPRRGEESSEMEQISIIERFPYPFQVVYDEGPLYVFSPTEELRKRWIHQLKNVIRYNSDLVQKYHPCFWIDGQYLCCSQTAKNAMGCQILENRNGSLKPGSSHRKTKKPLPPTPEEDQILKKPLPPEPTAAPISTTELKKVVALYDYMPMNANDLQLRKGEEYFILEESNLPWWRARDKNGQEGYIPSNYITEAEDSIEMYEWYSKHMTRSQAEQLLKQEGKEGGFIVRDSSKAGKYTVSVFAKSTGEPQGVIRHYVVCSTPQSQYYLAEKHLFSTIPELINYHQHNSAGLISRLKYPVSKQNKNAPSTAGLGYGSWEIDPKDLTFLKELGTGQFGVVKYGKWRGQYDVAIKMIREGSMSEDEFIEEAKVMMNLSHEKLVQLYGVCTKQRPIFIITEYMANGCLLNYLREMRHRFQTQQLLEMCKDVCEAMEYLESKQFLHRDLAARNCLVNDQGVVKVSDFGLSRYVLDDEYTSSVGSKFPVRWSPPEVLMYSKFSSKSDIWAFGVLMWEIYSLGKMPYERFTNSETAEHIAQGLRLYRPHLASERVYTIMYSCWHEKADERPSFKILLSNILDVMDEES
BTK protein in human whole blood, sequence (Q06187 whole entry): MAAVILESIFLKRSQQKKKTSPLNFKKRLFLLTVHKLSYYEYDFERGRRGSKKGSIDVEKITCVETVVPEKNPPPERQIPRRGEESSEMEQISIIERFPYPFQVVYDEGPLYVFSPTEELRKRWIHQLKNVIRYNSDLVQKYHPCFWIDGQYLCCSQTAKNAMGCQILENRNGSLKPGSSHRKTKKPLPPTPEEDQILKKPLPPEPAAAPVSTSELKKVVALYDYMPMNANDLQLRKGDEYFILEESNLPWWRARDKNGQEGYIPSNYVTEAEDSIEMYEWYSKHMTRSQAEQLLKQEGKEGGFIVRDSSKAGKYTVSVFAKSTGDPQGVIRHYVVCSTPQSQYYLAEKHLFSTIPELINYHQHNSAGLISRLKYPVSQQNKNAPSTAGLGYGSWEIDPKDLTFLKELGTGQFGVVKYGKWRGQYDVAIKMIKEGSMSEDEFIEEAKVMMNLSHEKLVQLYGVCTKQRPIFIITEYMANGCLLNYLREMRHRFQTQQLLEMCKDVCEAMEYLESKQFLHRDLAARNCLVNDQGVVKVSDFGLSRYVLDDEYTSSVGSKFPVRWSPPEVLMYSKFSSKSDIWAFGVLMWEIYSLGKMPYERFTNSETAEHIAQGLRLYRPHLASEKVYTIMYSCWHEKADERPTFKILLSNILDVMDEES

Compound	Mouse Bone Marrow (%) (% remaining BTK, vehicle versus treated) (BTK in mouse bone marrow)	Dmax [1]
Cc1cc(-c2cc(Nc3ccc(N4CCN(CCc5ccc(N6CCC(=O)NC6=O)cc5)C[C@H]4C)cn3)ncn2)ccc1[C@@H](C)NC(=O)c1nc(C(C)(C)C)no1 [Example 2, 3-tert-butyl-N-[(1R)-1-{4-[6-({5-[(2R)-4-{2-[4-(2,4-dioxo-1,3-diazinan-1-yl)phenyl]ethyl}-2-methylpiperazin-1-yl]pyridin-2-yl}amino)pyrimidin-4-yl]-2-methylphenyl}ethyl]-1,2,4-oxadiazole-5-carboxamide]	12%	98.8%
Cc1cc(-c2cc(Nc3ccc(N4CCN(CCc5ccc(N6CCC(=O)NC6=O)cc5)CC4)cn3)ncn2)ccc1[C@@H](C)NC(=O)c1nc(C(C)(C)C)no1 [Example 3, 3-tert-butyl-N-{(1R)-1-[4-(6-{[5-(4-{2-[4-(2,4-dioxo-1,3-diazinan-1-yl)phenyl]ethyl}piperazin-1-yl)pyridin-2-yl]amino}pyrimidin-4-yl)-2-methylphenyl]ethyl}-1,2,4-oxadiazole-5-carboxamide]	22%	99.2%
Cc1cc(-c2cc(Nc3ccc(N4CCN(CCc5ccc(N6CCC(=O)NC6=O)c(F)c5)C[C@@H]4C)cn3)ncn2)ccc1[C@@H](C)NC(=O)c1nc(C(C)(C)C)no1 [Example 4, 3-tert-butyl-N-[(1R)-1-{4-[6-({5-[(2S)-4-{2-[4-(2,4-dioxo-1,3-diazinan-1-yl)-3-fluorophenyl]ethyl}-2-methylpiperazin-1-yl]pyridin-2-yl}amino)pyrimidin-4-yl]-2-methylphenyl}ethyl]-1,2,4-oxadiazole-5-carboxamide]	13%	99.8%
Cc1cc(-c2cc(Nc3ccc(N4CCN(CCc5ccc(N6CCC(=O)NC6=O)c(F)c5)C[C@H]4C)cn3)ncn2)ccc1[C@@H](C)NC(=O)c1nc(C(C)(C)C)no1 [Example 5, 3-tert-butyl-N-[(1R)-1-{4-[6-({5-[(2R)-4-{2-[4-(2,4-dioxo-1,3-diazinan-1-yl)-3-fluorophenyl]ethyl}-2-methylpiperazin-1-yl]pyridin-2-yl}amino)pyrimidin-4-yl]-2-methylphenyl}ethyl]-1,2,4-oxadiazole-5-carboxamide]	12%	99.3%
CC[C@H]1CN(CCc2ccc(N3CCC(=O)NC3=O)cc2)CCN1c1ccc(Nc2cc(-c3ccc([C@@H](C)NC(=O)c4nc(C(C)(C)C)no4)c(C)c3)ncn2)nc1 [Example 6, 3-tert-butyl-N-[(1R)-1-{4-[6-({5-[(2S)-4-{2-[4-(2,4-dioxo-1,3-diazinan-1-yl)phenyl]ethyl}-2-ethylpiperazin-1-yl]pyridin-2-yl}amino)pyrimidin-4-yl]-2-methylphenyl}ethyl]-1,2,4-oxadiazole-5-carboxamide]	19%	99.8%
CC[C@H]1CN(CCc2ccc(N3CCC(=O)NC3=O)c(F)c2)CCN1c1ccc(Nc2cc(-c3ccc([C@@H](C)NC(=O)c4nc(C(C)(C)C)no4)c(C)c3)ncn2)nc1 [Example 7, 3-tert-butyl-N-[(1R)-1-{4-[6-({5-[(2S)-4-{2-[4-(2,4-dioxo-1,3-diazinan-1-yl)-3-fluorophenyl]ethyl}-2-ethylpiperazin-1-yl]pyridin-2-yl}amino)pyrimidin-4-yl]-2-methylphenyl}ethyl]-1,2,4-oxadiazole-5-carboxamide]	22%	99.3%
CC[C@@H]1CN(CCc2ccc(N3CCC(=O)NC3=O)cc2)CCN1c1ccc(Nc2cc(-c3ccc([C@@H](C)NC(=O)c4nc(C(C)(C)C)no4)c(C)c3)ncn2)nc1 [Example 8, 3-tert-butyl-N-[(1R)-1-{4-[6-({5-[(2R)-4-{2-[4-(2,4-dioxo-1,3-diazinan-1-yl)phenyl]ethyl}-2-ethylpiperazin-1-yl]pyridin-2-yl}amino)pyrimidin-4-yl]-2-methylphenyl}ethyl]-1,2,4-oxadiazole-5-carboxamide]	30%	98.6%
